We go through three compounds from patent US20250339569A1, “CARBONIC ANHYDRASE IX LIGANDS” (priority 2021, published 2025).

Read-outs that look alike come from different tables or passages of the source. Starred links: 1 amine or outer side, 2 acyl side, 3 side chain; linkers in the order of their positions; H or OH if unused. Positions of bridges follow the written chain, without caps; N, C: chain ends. Non-standard residues stand in square brackets, D forms with d. Residues, ends and D or L forms follow the SMILES beside them. *: point of attachment. Phe(3-NHCO(CH2)3SO2NH2) = N[C@@H](Cc1cccc(NC(=O)CCCS(N)(=O)=O)c1)C(=O)O; DOTA = O=C(O)CN1CCN(CC(=O)O)CCN(CC(=O)*)CCN(CC(=O)O)CC1; mXylylene = c1cc(C[*:1])cc(C[*:2])c1; X2 = O=C(CN1CCC(N[*:1])CC1)[*:2]; Dap = NC[C@H](N)C(=O)O

The conditions of data set [1]: mouse, plasma, 24 h.
The conditions of data set [2]: human, plasma.
Data set [3] is described as follows: Plasma stability assay, human plasma. Conditions: 37°C.
The nature of data set [4]: Plasma stability assay, mouse plasma. Conditions: mouse plasma, 37°C, 24 h.
Data set [5] addresses T1, human carbonic anhydrase IX (hCAIX-Fc) (Homo sapiens, UniProt Q16790).
T1 construct: purchased SinoBliological (Sino Biological) 10107-H02H
In words: Surface plasmon resonance assay with hCAIX-Fc. The data set is classed as binding. Conditions: for t1/2 category (activity): SPR dissociation half-life, hCAIX-Fc.

The next data set addresses T2, CAXII (hCAXII-bio) (Homo sapiens, UniProt O43570).
T2 construct: purchased SinoBliological (Sino Biological) 10617-H08H
In words: SPR selectivity assay with biotinylated CAXII. The data set is classed as binding. Conditions: SPR, biotinylated CAXII; read-out: pKD category (affinity) CAXII (converted). The procedure: (§1) In order to test selectivity of CAIX-binding peptides toward CAIV (SinoBliological, Cat #10472-1H081H), CAXII (SinoBliological, Cat #10617-H08H or CAXIV (SinoBliological, Cat #10458-H08H), SPR assays were performed analog to the assay described above but with a different target capture procedure. For immobilization, the carbonic anhydrases were biotinylated and capture on the SPR chip using the Biotin CAPture Kit (cytiva) according to the manufacturer instructions using HBSTE, 0.1% as Running Buffer.
(§2) Table 13 describes the protocol steps for biotinylated target capturing and assessment of the binding kinetics.

Data set [6] has as its target T3, Recombinant soluble human NEP (Homo sapiens, UniProt P08473).
T3 construct: Recombinant soluble human NEP; purchased BioTechne, Wiesbaden, Germany
In words: Proteolytic stability assay against NEP. The class given is in vitro ADME. As to conditions: 100 ng/mL NEP, 10 μM compound, 37°C. The procedure: To assess the stability of compounds against NEP, the compounds were subjected to an in vitro assay based on the protocol described by Edelson et al. (Edelson et al., Pulmonary pharmacology & therapeutics, 2013, 26, 229-238).
Recombinant soluble human NEP (BioTechne, Wiesbaden, Germany) at a concentration of 100 ng/mL was mixed with the compound (10 μM) and a stable internal standard (10 μM) and incubated at 37° C. After several time points, samples were taken and analyzed with LC-MS.
The activity of NEP was examined using a commercially available chromogenic substrate of NEP.

The target in a further data set is T4, CAIV (hCAIV-bio) (Homo sapiens, UniProt P22748).
T4 construct: purchased SinoBliological (Sino Biological) 10472-1H081H
T4 sequence (P22748 19-284): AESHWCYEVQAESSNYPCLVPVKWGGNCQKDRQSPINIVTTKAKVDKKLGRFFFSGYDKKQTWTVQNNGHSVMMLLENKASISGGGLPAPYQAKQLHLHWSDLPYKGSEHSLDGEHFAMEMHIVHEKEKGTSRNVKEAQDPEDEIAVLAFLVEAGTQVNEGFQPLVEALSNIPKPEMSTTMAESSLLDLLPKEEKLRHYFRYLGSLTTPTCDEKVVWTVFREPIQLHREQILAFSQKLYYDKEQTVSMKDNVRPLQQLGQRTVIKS
Description: SPR selectivity assay with biotinylated CAIV. The class given is binding. Conditions: SPR, biotinylated CAIV; read-out: pKD category (affinity) CAIV (converted). As to the method: as §1, §2

Another data set deals with T5, CAXIV (hCAXIV-bio) (Homo sapiens, UniProt Q9ULX7).
T5 construct: purchased SinoBliological (Sino Biological) 10458-H08H
T5 sequence (Q9ULX7 16-337): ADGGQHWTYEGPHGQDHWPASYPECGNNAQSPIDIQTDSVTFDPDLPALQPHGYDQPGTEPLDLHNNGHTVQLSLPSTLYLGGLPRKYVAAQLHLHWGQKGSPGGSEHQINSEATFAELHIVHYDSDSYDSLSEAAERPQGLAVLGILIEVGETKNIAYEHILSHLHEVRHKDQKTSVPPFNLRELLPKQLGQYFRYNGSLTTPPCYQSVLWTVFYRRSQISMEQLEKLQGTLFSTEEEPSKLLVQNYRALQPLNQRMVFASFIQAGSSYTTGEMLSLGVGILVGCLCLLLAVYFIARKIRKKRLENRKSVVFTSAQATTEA
Description: SPR selectivity assay with biotinylated CAXIV. The class given is binding. As to conditions: SPR, biotinylated CAXIV; read-out: pKD category (affinity) CAXIV (converted). The procedure:
as §1, §2

The target of a further data set is T6, mouse CAIX (Mus musculus, UniProt Q8VHB5).
T6 construct: host or cells: CHO-VGT / CHO cells
T6 sequence (Q8VHB5 32-437): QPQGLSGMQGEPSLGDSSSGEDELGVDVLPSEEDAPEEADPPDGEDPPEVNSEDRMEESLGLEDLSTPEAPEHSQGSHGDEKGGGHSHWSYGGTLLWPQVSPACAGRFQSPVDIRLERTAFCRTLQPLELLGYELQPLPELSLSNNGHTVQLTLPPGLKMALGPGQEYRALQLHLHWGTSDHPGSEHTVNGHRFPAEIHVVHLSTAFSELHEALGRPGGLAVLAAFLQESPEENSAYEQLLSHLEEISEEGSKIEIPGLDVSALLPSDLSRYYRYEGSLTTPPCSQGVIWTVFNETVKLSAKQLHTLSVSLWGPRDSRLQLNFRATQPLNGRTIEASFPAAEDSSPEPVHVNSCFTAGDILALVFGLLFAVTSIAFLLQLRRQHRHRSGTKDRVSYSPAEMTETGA
In words: Radioligand binding assay, 111In-labeled compounds, CHO-VGT cells with mouse CAIX. As to conditions: 111In-labeled compound, Mouse CAIX, 8 h at 37°C; read-out: pKD category (activity) (converted). As to the method:
(§3) In order to assess the affinity of ^111In-labeled compounds to CAIX of different species, a radioligand binding assay was established.
(§4) CHO-VGT cells were transfected with the human, dog, and mouse CAIX (InSCREENex GmbH) and cultured in Ham's F-12 medium (Sigma-Aldrich #N4888) supplemented with 10% fetal bovine serum (FCS), 2 mM L-glutamine, 100 U/mL Penicillin, and 0.1 mg/mL streptomycin. Cells were detached with Accutase (Biolegend #423201) and counted using a particle counter (CASY Model TT; Scharfe Systems, Germany). Cell concentrations were adjusted to 3×10^5 mL^−1, and 1.000 μL of the suspension per well were dispensed into flat-clear-bottom 24 well plates.
(§5) Approximately 24 hours after re-seeding, the medium was aspirated and the cells were washed once with 1000 μL assay medium (Ham's medium without additives). To determine total binding, 700 μL of assay medium and 100 μL of the radioligand dilutions were added to the wells in triplicates. To determine non-specific binding, 600 μL of binding medium, 100 μL of the radioligand dilutions and 100 μL of a blocking solution containing 8 μM non-labeled compound were added to the wells in triplicates. At the end of incubation time (8 h at 37° C.), cells were washed and subsequently harvested in 300 μL RIPA buffer (Thermo Scientific #89901) containing Protease Inhibitor Cocktail Set I (Calbiochem #539131). Radioactivity of the cell lysate of each well was counted using a gamma counter (1470 Wizard, PerkinElmer, USA). An aliquot of each radioligand dilution was included in the gamma counter measurements to allow for determination of their actual concentrations via their known specific activity.

In another data set the test system is dog CAIX. Description: Radioligand binding assay, 111In-labeled compounds, CHO-VGT cells with dog CAIX. As to conditions: 111In-labeled compound, 8 h at 37°C. As to the method:
as §3, §4, §5

For data set [7], the target named is T7, CAIX-expressing human HT-29 colorectal cancer cells (Homo sapiens, UniProt Q16790).
T7 construct: CAIX-expressing human HT-29 colorectal cancer cells; host or cells: HT-29 human colorectal cancer cells
Description: FACS binding assay (IC50 determination, competition with tracer 3BP-2776 or 3BP-4149). Conditions: 4° C., 1 hour, read-out: pIC50 category (activity) (converted). The method in brief: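 HT-29 cells in FACS buffer (PBS, 1% FCS) at 500.000 cells/ml were exposed to compounds competing with a labelled tracer, with biotinylated compounds detected by 1 μg/mL APC-streptavidin for 30 min on ice. APC/Cy5 median fluorescence was read by flow cytometry and IC50 derived by 4PL fit.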

The nature of data set [8]: in vitro. Conditions: mouse, plasma.
The next data set has as its target human CAIX (Homo sapiens, UniProt Q16790). Description: Radioligand binding assay, 111In-labeled compounds, CHO-VGT cells with human CAIX. Also noted: host or cells: CHO-VGT / CHO cells. Conditions: 111In-labeled compound, Human CAIX, 8 h at 37°C; read-out: pKD category (activity) (converted). The procedure:
as §3, §4, §5

A short description of data set [9]: in vitro. As to conditions: human, plasma.

T2 sequence (O43570 25-354): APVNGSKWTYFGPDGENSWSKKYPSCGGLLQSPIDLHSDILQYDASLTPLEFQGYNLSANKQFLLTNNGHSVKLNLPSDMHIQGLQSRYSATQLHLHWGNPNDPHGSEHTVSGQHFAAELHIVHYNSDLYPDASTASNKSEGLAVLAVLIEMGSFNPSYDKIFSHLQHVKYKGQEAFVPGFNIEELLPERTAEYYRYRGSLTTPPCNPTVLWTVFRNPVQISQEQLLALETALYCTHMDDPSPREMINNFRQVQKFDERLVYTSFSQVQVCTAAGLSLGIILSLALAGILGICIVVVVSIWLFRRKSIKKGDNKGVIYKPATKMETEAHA
T3 sequence (P08473 52-750 limits assumed): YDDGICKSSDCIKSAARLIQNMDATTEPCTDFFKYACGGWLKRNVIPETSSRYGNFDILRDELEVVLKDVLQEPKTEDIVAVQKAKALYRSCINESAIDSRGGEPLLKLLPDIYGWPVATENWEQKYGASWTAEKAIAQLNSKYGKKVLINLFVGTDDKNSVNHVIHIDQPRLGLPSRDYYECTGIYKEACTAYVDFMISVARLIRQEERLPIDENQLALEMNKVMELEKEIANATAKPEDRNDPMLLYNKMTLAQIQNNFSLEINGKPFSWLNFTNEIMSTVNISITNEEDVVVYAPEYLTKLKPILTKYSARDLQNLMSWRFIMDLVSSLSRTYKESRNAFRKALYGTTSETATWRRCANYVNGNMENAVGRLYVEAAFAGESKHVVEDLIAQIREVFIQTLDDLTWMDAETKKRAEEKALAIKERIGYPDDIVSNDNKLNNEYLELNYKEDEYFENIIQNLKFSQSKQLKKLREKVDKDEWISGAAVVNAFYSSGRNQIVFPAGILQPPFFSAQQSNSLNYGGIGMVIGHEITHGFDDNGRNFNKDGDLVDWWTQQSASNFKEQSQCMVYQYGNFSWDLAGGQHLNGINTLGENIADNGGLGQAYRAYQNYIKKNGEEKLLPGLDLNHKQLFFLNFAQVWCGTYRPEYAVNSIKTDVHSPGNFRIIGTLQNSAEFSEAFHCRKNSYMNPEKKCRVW

In the case of `CC(C)C[C@@H]1NC(=O)[C@H](Cc2ccc(NC(=O)CCS(N)(=O)=O)cc2)NC(=O)[C@H](CC(=O)O)NC(=O)[C@H]2CCCN2C(=O)[C@H](CCC(=O)O)NC(=O)[C@@H](NC(=O)[C@H](CCC(N)=O)NC(=O)CN2CCN(CC(=O)O)CCN(CC(=O)O)CCN(CC(=O)O)CC2)CSCc2cccc(c2)CSC[C@@H](C(N)=O)NC(=O)[C@H](CO)NC(=O)[C@H](Cc2c[nH]c3ccccc23)NC(=O)[C@H]([C@@H](C)O)NC1=O` (natLu complex, metal not drawn) [3BP-4581], the “% intact compound remaining (incubation time)” value in [1] was above 95%. Besides, the “% intact compound remaining after 24 h incubation” value in data set [2] is on record as above 95%.
Consider `CC(C)C[C@@H]1NC(=O)[C@H](Cc2c[nH]c3ccccc23)NC(=O)[C@H](CC(=O)O)NC(=O)[C@H]2CCCN2C(=O)[C@H](CCC(=O)O)NC(=O)[C@@H](NC(=O)[C@H](Cc2ccc(O)cc2)NC(=O)[C@@H](NC(=O)CN2CCC(NC(=O)CN3CCN(CC(=O)O)CCN(CC(=O)O)CCN(CC(=O)O)CC3)CC2)C(C)C)CSCc2cccc(c2)CSC[C@@H](C(N)=O)NC(=O)[C@H](CO)NC(=O)[C@H](Cc2c[nH]c3ccccc23)NC(=O)[C@H]([C@@H](C)O)NC1=O` [3BP-3583, DOTA-APAc-Val-Tyr-[Cys(3MeBn)-Glu-pro-Asp-Trp-Leu-Thr-Trp-Ser-Cys]-NH2] ({DOTA}-[X2]VYCE[dP]DWLTWSC-NH2; linker 4-13 via mXylylene), for which the “% intact compound remaining after 24 h incubation” value is reported as 71% in data set [3] and above 95% in [6]. The “% intact compound remaining (incubation time)” value in data set [4] was determined as 79%. The “t1/2 category (activity)” value in data set [5] (25° C.) is “A (t1/2>15.0 minutes)”. The Kd on CAXII (hCAXII-bio) is above 1000 nM; on CAIV (hCAIV-bio), above 1000 nM; at CAXIV (hCAXIV-bio), above 1000 nM; at mouse CAIX it was 100 to 794 nM. Further, the “pKD category (activity)” value in the data set with dog CAIX is listed as “A (pKD values >8.0)”. Besides, the IC50 in [7] (FACS competition on HT-29 cells, Tracer ID 3BP-2776 (10 nM, biotin-labeled)) is below 10 nM.
In the case of `CC(C)C[C@@H]1NC(=O)[C@H](Cc2cccc(NC(=O)CCCS(N)(=O)=O)c2)NC(=O)[C@H](CC(=O)O)NC(=O)[C@H]2CCCN2C(=O)[C@H](CCC(=O)O)NC(=O)[C@@H]2CSCc3cccc(c3)CSC[C@@H](C(N)=O)NC(=O)[C@H](CNC(=O)CC[C@H](NC(=O)CN3CCN(CC(=O)O)CCN(CC(=O)O)CCN(CC(=O)O)CC3)C(=O)N2)NC(=O)[C@H](Cc2c[nH]c3ccccc23)NC(=O)[C@H]([C@@H](C)O)NC1=O` [3BP-4503, DOTA-{Glu-[Cys(3MeBn)-Glu-pro-Asp-Af3(Cpsu)-Leu-Thr-Trp-Dap}-Cys]-NH2] ({DOTA}-ECE[dP]D[Phe(3-NHCO(CH2)3SO2NH2)]LTW[Dap]C-NH2; lactam 1-10; linker 2-11 via mXylylene), the amount remaining at 24 h, […] in “in vitro [8]” and in the data set “in vitro [9]” was above 95% each time. For the same compound, the “t1/2 category (activity)” value in data set [5] (25° C.) was “A (t1/2>15.0 minutes)”. In addition, in data set [5] (SPR, hCAIX), the “pKD category (affinity) CAIX” value is “A (pKD values >8.0)”. Besides, the Kd in data set [5] (SPR, hCAIX-Fc captured, 25° C., read-out: pKD category (activity) (converted)) was below 10 nM; at CAXII (hCAXII-bio), above 1000 nM; on CAIV (hCAIV-bio), above 1000 nM; at CAXIV (hCAXIV-bio), above 1000 nM; on mouse CAIX it was below 10 nM; on human CAIX, below 10 nM. Besides, the “pKD category (activity)” value in the data set with dog CAIX is given as “A (pKD values >8.0)”. Also, the IC50 in [7] (FACS binding assay, HT-29 cells, competition with tracer 3BP-2776 (10 nM, biotin-labeled)) is below 10 nM.
